Experiments:
Format in all cases: in vivo
db/db mice [1] = assay: Measurement of glycosylated hemoglobin (HbAlc) concentration; conditions: D29, once per day intragastric, RX-6 6 mg/kg, RX-12 12 mg/kg, MET 350 mg/kg, NOR 8.85%, FIG. 2
Description: Glycosylated hemoglobin (GHb) is a product hemoglobin in red blood cells, conjugated with saccharides in serum. GHb is formed via slow, persistent, and irreversible glycation; its content is dependent on blood glucose concentration, and exposure duration of blood glucose to hemoglobin, and independent of blood collection time, patients' fasting or non-fasting status, or insulin use or non-use, etc. Therefore, GHb may efficiently reflect blood glucose control in patients with diabetes mellitus in the past 1-2 month.
Test method: after animal are fasted, 20 μL of whole blood is collected and placed into an EP tube containing HbAlc diluent; the content of HbAlc is measured by a full-automatic analyzer. The specific method refers to the Instructions of the Kit.
To investigate TCM complex for prevention and treatment of type II diabetes mellitus in animal model, grade SPF BKS.Cg-Dock7m+/+Leprdb/J mice (referred to as db/db mice for short) were used to conduct a hypoglycemic experiment validation. The mice were allowed with free access to feed and water. […]
The concentration was measured on D29 after oral administration of the drug. The animals were fasted for 4-6 h, and then anesthetized by inhalation of isoflurane; […] of whole blood was collected from orbital venous plexus and placed into a EP tube containing HbAlc diluent; the content of HbAlc was measured by a full-automatic analyzer. […]

db/db mice [2] = assay: Test for urine creatinine (diabetic nephropathy test); conditions: 29-d raise, MET 350 mg/kg, FIG. 6
Description: (§1) Overnight urine is collected and placed on crushed ice to test urine total protein, urine albumin, urine microalbumin, and urine creatinine.
(§2) To investigate TCM complex for prevention and treatment of type II diabetes mellitus in animal model, grade SPF BKS.Cg-Dock7m+/+Leprdb/J mice (referred to as db/db mice for short) were used to conduct a hypoglycemic experiment validation. The mice were allowed with free access to feed and water. The mice were assigned into 4 groups (4 mice per group), and were administered intragastrically with the complex, once per day. […] The animals of each group were orally administered with the sample to Week 4. Urine and blood were collected 4 week later.
(§3) The drugs in the drug groups included Poria, Semen Coicis, Rhizoma Dioscoreae, Semen Euryales, Semen Nelumbinis, Endothelium Corneum Gigeriae Galli, and Paeonia Lactiflora; the preparation method is that, Poria, Semen Coicis, Rhizoma Dioscoreae, Semen Euryales, Semen Nelumbinis, Endothelium Corneum Gigeriae Galli, and Paeonia Lactiflora were prepared and then compounded in a weight ratio of 1:1:1:1:1:1:2 to produce a powder. The obtained powder was diluted in a certain proportion to obtain RX−6 of the low dose (6 mg/kg) drug group, and RX-12 of the high dose (12 mg/kg) drug group. […]

db/db mice [3] = assay: Quantitative test for UTP 24-h urine protein (diabetic nephropathy test); conditions: D29, RX-6 6 mg/kg, RX-12 12 mg/kg, MET 350 mg/kg, NOR 39.30 mg/DL, FIG. 3
Description: as §1, §2
The drugs in the drug groups included Poria, Semen Coicis, Rhizoma Dioscoreae, Semen Euryales, Semen Nelumbinis, Endothelium Corneum Gigeriae Galli, and Paeonia Lactiflora; the preparation method is that, Poria, Semen Coicis, Rhizoma Dioscoreae, Semen Euryales, Semen Nelumbinis, Endothelium Corneum Gigeriae Galli, and Paeonia Lactiflora were prepared and then compounded in a weight ratio of 1:1:1:1:1:1:2 to produce a powder. […]
Quantitative test for 24 h urine protein (UTP24) is a urine test method in which 24-h discharged total urine is collected to conduct a […] test.

db/db mice [4] = assay: Non-fasting blood glucose level; conditions: MET 350 mg/kg, D4 after oral administration
Protocol: The measured value of 2-H postprandial blood glucose test is the most valuable and may reflect reserve function of pancreatic islet B cells. Blood glucose is measured after animals eat feed.
(§4) To investigate TCM complex for prevention and treatment of type II diabetes mellitus in animal model, grade SPF BKS.Cg-Dock7m+/+Leprdb/J mice (referred to as db/db mice for short) were used to conduct a hypoglycemic experiment validation. The mice were allowed with free access to feed and water. The mice were assigned into 4 groups (4 mice per group), and were administered intragastrically with the complex, once per day. […] The animals of each group were orally administered with the sample to Week 4. Urine and blood were collected 4 week later. […]
The animals were fed randomly and then blood was collected at tail end to measure non-fasting blood glucose level. Fasting blood glucose was measured for […], i.e.: prior to grouping, and 24 h, D4, D7, D15, D21, and D27 after administration of the drug.

db/db mice [5] = assay: Measurement of fasting blood glucose level; conditions: MET 350 mg/kg, 2 d after oral administration, data not shown
Protocol: Fasting blood glucose means blood glucose level under the basal condition, reflecting the basal function of pancreatic islet B cells, and is an important criterion for diagnosis of diabetes mellitus. Oral glucose tolerance test means determination of fasting blood glucose after animals are fasted, and then animals are administered with the drug and administered intragastrically with glucose solution at the corresponding timepoints, and blood glucose is measured prior to intragastric administration of glucose, and 30 min, 60 min and 120 min after intragastric administration of glucose.
as §4
After animals were fasted for 4-6 h, blood was collected at tail end to measure fasting blood glucose. Fasting blood glucose was measured for 4 times, i.e.: prior to grouping, and D2, D7, and D15 after administration of the drug.

db/db mice [6] = assay: Test for mAlb urine microalbumin (diabetic nephropathy test); conditions: D29, RX-6 6 mg/kg, RX-12 12 mg/kg, MET 350 mg/kg, NOR 20.10 mg/L, FIG. 5
Description: as §1, §2, §3

CN(C)C(=N)N=C(N)N [MET, metformin]
glycosylated hemoglobin value (HbAlc) (db/db mice [1]): 6% | urine creatinine increased than that in the negative control group NOR (db/db mice [2]): 10.5 µM | UTP24 h urine protein (db/db mice [3]): 39.65 mg/dL | non-fasting blood glucose level compared with control (db/db mice [4]): less than that in the positive control | fasting blood glucose level compared with negative control group NOR (db/db mice [5]): less than that in negative control group NOR | mAlb urine microalbumin content (db/db mice [6]): 8.50 mg/L
